By Km is commonly meant the concentration of substrate that gives half-maximal velocity.

This passage reports Km results from PMC3723861, “Nitrile hydratase of Rhodococcus erythropolis: characterization of the enzyme and the use of whole cells for biotransformation of nitriles” (3 Biotech, 2012).

This assay deals with T1, nitrile hydratase.
T1 construct: gene nthA; native intracellular enzyme purified from R. erythropolis MTCC 1526 grown with CoCl2; subunits about 29 kDa (alpha) and 30 kDa (beta); native 65 kDa
Put plainly: nicotinamide formation by HPLC, Lineweaver-Burk plot. The format is biochemical, Rhodococcus erythropolis. To be noted: pH 7.0, 20 mM phosphate buffer, 25 °C (Fig. 6 legend says 20 °C); 0.2-2.0 mM substrate.

The structures appear in SMILES notation.

For the compound `N#Cc1cccnc1` [3-cyanopyridine], the Km is 624 µM.
